From patent US20100120858A1, “Piperidine Derivatives” (Pfizer Inc., priority 2006, published 2010)
Structures can show the parent of a compound that is named as a salt.

What was measured:
[1] = target: human norepinephrine transporter (Homo sapiens, UniProt P23975); test: Human norepinephrine (hNET) receptor binding, [125I]-RTI-55; settings: membranes of HEK-293 cells transfected with human norepinephrine transporter cDNA; 50 pM [125I]-RTI-55; IC50 converted by Cheng-Prusoff
Description: Cell pastes of human embryonic kidney 293 (HEK-293) cells transfected with a human norepinephrine transporter cDNA were prepared. The cell pastes were resuspended in 400 to 700 mL of Krebs-N-2-hydroxyethylpiperazine-N′-2-ethanesulfonic acid (HEPES) assay buffer (25 mM HEPES, 122 mM NaCl, 3 mM KCl, 1.2 mM MgSO4, 1.3 mM CaCl2, and 11 mM glucose, pH 7.4) with a Polytron homogenizer at setting 7 for 30 seconds. Aliquots of membranes (5 mg/mL protein) were stored in liquid nitrogen until used.
The binding assay was set up in Beckman deep-well polypropylene plates with a total volume of 250 μL containing: test compound (concentration of 10^−5M to 10^−12M), cell membranes, and 50 pM [^125I]-RTI-55 ([^125I]-3 beta-(4-iodophenyl)tropan-2 beta-carboxylic acid methyl ester) (Perkin Elmer, NEX-272; specific activity 2200 Ci/mmol). The reaction was incubated by gentle agitation for 90 minutes at room temperature and was terminated by filtration through Whatman GF/C filter plates using a Brandel 96-well plate harvester. Scintillation fluid (100 μL) was added to each well, and bound [^125I]-RTI-55 was determined using a Wallac Trilux Beta Plate Counter. Test compounds were run in duplicate, and specific binding was defined as the difference between binding in the presence and absence of 10 μM desipramine.
Excel and GraphPad Prism software were used for data calculation and analysis. IC50 values were converted to Ki values using the Cheng-Prusoff equation. The Ki values (nM) for the hNET are reported below in Table 13.

[2] = target: human serotonin transporter (Homo sapiens, UniProt P31645); test: Human serotonin (hSERT) receptor binding, [125I]-RTI-55; settings: membranes of HEK-293 cells transfected with human serotonin transporter cDNA, IC50 converted by Cheng-Prusoff
Description: Cell pastes of HEK-293 cells transfected with a human serotonin transporter cDNA were prepared. The cell pastes were resuspended in 400 to 700 ml of Krebs-HEPES assay buffer (25 mM HEPES, 122 mM NaCl, 3 mM KCl, 1.2 mM MgSO4, 1.3 mM CaCl2, and 11 mM glucose, pH 7.4) with a Polytron homogenizer at Setting 7 for 30 seconds. Aliquots of membranes (˜2.5 mg/mL protein) were stored in liquid nitrogen until used.
Assays were set up in FlashPlates pre-coated with 0.1% polyethyleneimine (PEI) in a total volume of 250 μL containing: test compound (concentration 10^−5M to 10^−12M), cell membranes, and […] [^125I]-RTI-55 (Perkin Elmer, NEX-272; specific activity 2200 Ci/mmol). The reaction was incubated and gently agitated for 90 minutes at room temperature, and terminated by removal of assay volume. Plates were covered, and bound [^125I]-RTI-55 was determined using a Wallac Trilux Beta Plate Counter. Test compounds were run in duplicate, and specific binding was defined as the difference between binding in the presence and absence of 10 μM citalopram.
Excel and GraphPad Prism software were used for data calculation and analysis. IC50 values were converted to Ki values using the Cheng-Prusoff equation.

human norepinephrine transporter, sequence (P23975 whole entry): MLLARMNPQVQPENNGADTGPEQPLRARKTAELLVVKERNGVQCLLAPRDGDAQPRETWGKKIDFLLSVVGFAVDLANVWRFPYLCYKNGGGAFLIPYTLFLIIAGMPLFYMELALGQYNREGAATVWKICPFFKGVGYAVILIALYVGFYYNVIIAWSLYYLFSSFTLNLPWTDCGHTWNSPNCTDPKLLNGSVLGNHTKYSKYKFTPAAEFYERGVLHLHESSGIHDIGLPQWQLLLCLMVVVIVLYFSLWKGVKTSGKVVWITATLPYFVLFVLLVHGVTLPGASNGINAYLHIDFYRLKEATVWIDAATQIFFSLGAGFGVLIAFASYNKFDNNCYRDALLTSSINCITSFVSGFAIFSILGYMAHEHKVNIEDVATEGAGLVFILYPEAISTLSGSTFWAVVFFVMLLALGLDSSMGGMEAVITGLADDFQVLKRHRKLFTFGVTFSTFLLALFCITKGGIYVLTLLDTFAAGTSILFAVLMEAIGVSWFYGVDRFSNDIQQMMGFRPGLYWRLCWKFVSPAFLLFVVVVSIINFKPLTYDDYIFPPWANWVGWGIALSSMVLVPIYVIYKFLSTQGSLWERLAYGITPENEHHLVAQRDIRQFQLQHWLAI
human serotonin transporter, sequence (P31645 whole entry): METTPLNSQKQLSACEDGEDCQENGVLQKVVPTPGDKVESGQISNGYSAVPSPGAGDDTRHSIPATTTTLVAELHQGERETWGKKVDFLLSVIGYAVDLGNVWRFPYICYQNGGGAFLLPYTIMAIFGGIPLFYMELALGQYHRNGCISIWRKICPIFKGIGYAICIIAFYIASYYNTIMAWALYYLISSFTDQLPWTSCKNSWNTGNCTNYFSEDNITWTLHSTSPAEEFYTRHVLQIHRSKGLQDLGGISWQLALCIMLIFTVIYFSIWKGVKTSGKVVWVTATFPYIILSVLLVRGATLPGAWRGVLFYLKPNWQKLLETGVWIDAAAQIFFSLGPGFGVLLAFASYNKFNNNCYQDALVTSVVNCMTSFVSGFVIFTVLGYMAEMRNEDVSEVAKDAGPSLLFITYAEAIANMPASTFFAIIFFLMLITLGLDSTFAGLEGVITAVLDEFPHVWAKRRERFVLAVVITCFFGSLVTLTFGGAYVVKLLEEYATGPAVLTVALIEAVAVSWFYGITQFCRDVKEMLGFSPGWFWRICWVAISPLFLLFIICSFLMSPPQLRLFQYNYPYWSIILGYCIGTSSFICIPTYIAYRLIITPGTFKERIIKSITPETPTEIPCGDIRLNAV

Row | Structure (SMILES) | Ki [1] | Ki [2]
1 | COc1ccccc1Oc1nc(C)ccc1OC[C@H]1CCCNC1 [Example 3, (S)-2-(2-methoxy-phenoxy)-6-methyl-3-(piperidin-3-ylmethoxy)-pyridine fumaric acid] | 2.2 nM | 1200 nM
2 | CCOc1ccccc1O[C@@H](c1ccccn1)[C@H]1CCCNC1 [Example 114, 2-[{(R)-2-ethoxy-phenoxy}-(S)-piperidin-3-yl-methyl]-pyridine fumaric acid] | 7 nM | 3700 nM
3 | COc1cccc(F)c1OC[C@H]1CCCNC1 [Example 103, (S)-3-(2-fluoro-6-methoxy-phenoxymethyl)-piperidine fumaric acid] | 45 nM | 1200 nM
4 | Fc1ccc(Oc2cc(F)ccc2OC[C@H]2CCCNC2)c(Cl)c1 [Example 39, (S)-3-[2-(2-chloro-4-fluoro-phenoxy)-4-fluoro-phenoxymethyl]-piperidine fumaric acid] | 802 nM | 110 nM
5 | CC[C@H](Oc1cccnc1Oc1ccc(F)cc1)[C@H]1CCCNC1 [Example 85, (S,S)-2-(4-fluoro-phenoxy)-3-(1-piperidin-3-yl-propoxy)-pyridine fumaric acid] | 5 nM | 2030 nM
6 | COc1ccc(Oc2ncccc2OC[C@H]2CCCNC2)cc1 [Example 51, (S)-2-(4-methoxy-phenoxy)-3-(piperidin-3-ylmethoxy)-pyridine fumaric acid] | 27 nM | 7300 nM
7 | N#Cc1ccc(Oc2ncccc2OC[C@H]2CCCNC2)cc1C#N [Example 58, (S)-4-[3-(piperidin-3-ylmethoxy)-pyridin-2-yloxy]-phthalonitrile fumaric acid] | 1200 nM | 3990 nM
8 | CC(C)Oc1ncccc1OC[C@H]1CCCNC1 [Example 80, (S)-2-isopropoxy-3-(piperidin-3-ylmethoxy)-pyridine fumaric acid] | 102 nM | > 10000 nM
9 | Cc1ccc(Oc2ncccc2OC[C@H]2CCCNC2)cc1 [Example 52, (S)-2-(4-methyl-phenoxy)-3-(piperidin-3-ylmethoxy)-pyridine fumaric acid] | 4 nM | 5200 nM
10 | Cc1ccc(OC[C@H]2CCCNC2)c(Oc2ccc(Cl)cc2)n1 [Example 13, (S)-2-(4-chloro-phenoxy)-6-methyl-3-(piperidin-3-ylmethoxy)-pyridine fumaric acid] | 8.9 nM | 140 nM
11 | CCOc1ncccc1OC(c1ccccc1)C1CCCNC1 (single isomer, unassigned; stereoisomer a) [Example 90, 2-ethoxy-3-[((R or S)-phenyl)-((S)-piperidin-3-yl)-methoxy]-pyridine fumaric acid, stereoisomer A] | 2 nM | 71 nM
12 | c1ccc(Oc2ncccc2OC[C@H]2CCCNC2)cc1 [Example 93, (S)-2-phenoxy-3-(piperidin-3-ylmethoxy)-pyridine fumaric acid] | 5 nM | 7500 nM
13 | CC(C)CCOc1ccccc1O[C@@H](C)[C@H]1CCCNC1 [Example 112, (S)-3-{(S)-1-[2-(3-methyl-butoxy)-phenoxy]-ethyl}-piperidine oxalic acid] | 16 nM | 790 nM
14 | Cc1ccc(OC[C@H]2CCCNC2)c(Oc2c(Cl)cc(F)cc2Cl)n1 [Example 48, (S)-2-(2,6-dichloro-4-fluoro-phenoxy)-6-methyl-3-(piperidin-3-ylmethoxy)-pyridine hydrochloride] | 61 nM | > 9200 nM
15 | Fc1ccc(Oc2c(F)cccc2OC[C@H]2CCCNC2)c(Cl)c1 [Example 38, (S)-3-[2-(2-chloro-4-fluoro-phenoxy)-3-fluoro-phenoxymethyl]-piperidine fumaric acid] | 3.6 nM | 1900 nM
16 | Fc1ccc(Oc2cccc(F)c2OC[C@H]2CCCNC2)cc1F [Example 97, (S)-3-[2-(3,4-difluoro-phenoxy)-6-fluoro-phenoxymethyl]-piperidine fumaric acid] | 1 nM | 690 nM
